Measurements published in patent US20260001888A1, “PYRAZOLOPYRIMIDINE PDE9 INHIBITORS” (Merck Sharp & Dohme LLC, priority 2018, published 2026).

Target: Human PDE9 (PDE9A2) (Homo sapiens (Human), UniProt O76083)
Experiment: PDE9 IMAP fluorescence polarization (FP) inhibition assay
Assay type: biochemical
Conditions: apparent inhibition constant; human PDE9A2, FAM-cGMP substrate 50 nM, room temperature
Summary of the method: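 N-terminal GST-tagged full-length PDE9A2 membrane prep (0.5 ng/ml final) preincubated 30 min with compound at room temperature, then 50 nM FAM-cGMP added for 60 min; IMAP binding reagent stops reaction, FP read after 1 h. Controls: known PDE9 inhibitor (100%), 1% DMSO (0%). KI from four-parameter fit.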

Sequence of Human PDE9 (PDE9A2) (O76083 other isoform, or with tags, fused parts or gaps): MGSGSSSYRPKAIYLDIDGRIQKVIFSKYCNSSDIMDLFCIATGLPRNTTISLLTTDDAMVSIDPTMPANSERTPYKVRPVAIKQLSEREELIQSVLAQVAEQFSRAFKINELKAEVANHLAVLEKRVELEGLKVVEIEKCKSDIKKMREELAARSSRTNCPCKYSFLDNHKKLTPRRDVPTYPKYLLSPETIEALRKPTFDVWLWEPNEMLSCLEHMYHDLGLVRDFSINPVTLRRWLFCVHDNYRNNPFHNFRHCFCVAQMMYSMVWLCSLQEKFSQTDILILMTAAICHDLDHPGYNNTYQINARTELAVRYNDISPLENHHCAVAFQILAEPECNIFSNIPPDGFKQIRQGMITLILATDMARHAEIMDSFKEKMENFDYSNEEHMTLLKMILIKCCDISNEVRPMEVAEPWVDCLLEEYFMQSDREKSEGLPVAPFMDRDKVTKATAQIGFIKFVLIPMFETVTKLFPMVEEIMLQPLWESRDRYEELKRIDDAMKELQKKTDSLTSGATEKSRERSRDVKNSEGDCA

| Compound | Ki |
| --- | --- |
| CCC(Nc1nc2c(c(C#N)nn2C(C)c2ccc(C(F)(F)F)nc2)c(=O)[nH]1)c1ncccn1 (single isomer, unassigned) [Example 72, 4-Oxo-6-((1-(pyrimidin-2-yl)propyl)amino)-1-(1-(6-(trifluoromethyl)pyridin-3-yl)ethyl)-4,5-dihydro-1H-pyrazolo[3,4-d]pyrimidine-3-carbonitrile] | 21.9 nM |
| CCC(Nc1nc2c(c(C#N)nn2C(C)c2ccc(C(F)(F)F)nc2)c(=O)[nH]1)c1ncccn1 (single isomer, unassigned) [Example 73, 4-Oxo-6-((1-(pyrimidin-2-yl)propyl)amino)-1-(1-(6-(trifluoromethyl)pyridin-3-yl)ethyl)-4,5-dihydro-1H-pyrazolo[3,4-d]pyrimidine-3-carbonitrile] | 0.25 nM |
| CCC(Nc1nc2c(c(C#N)nn2C(C)c2ccc(C(F)(F)F)nc2)c(=O)[nH]1)c1ncccn1 (single isomer, unassigned) [Example 74, 4-Oxo-6-((1-(pyrimidin-2-yl)propyl)amino)-1-(1-(6-(trifluoromethyl)pyridin-3-yl)ethyl)-4,5-dihydro-1H-pyrazolo[3,4-d]pyrimidine-3-carbonitrile] | 11.4 nM |
| CCC(c1ncc(F)cn1)N(C)c1nc2c(c(C#N)nn2C(C)c2ccc(C(F)(F)F)nc2)c(=O)[nH]1 (single isomer, unassigned) [Example 75, 6-((1-(5-fluoropyrimidin-2-yl)propyl)(methyl)amino)-4-oxo-1-(1-(6-(trifluoromethyl)pyridin-3-yl)ethyl)-4,5-dihydro-1H-pyrazolo[3,4-d]pyrimidine-3-carbonitrile] | 3.31 nM |
| CCC(c1ncc(F)cn1)N(C)c1nc2c(c(C#N)nn2C(C)c2ccc(C(F)(F)F)nc2)c(=O)[nH]1 (single isomer, unassigned) [Example 76, 6-((1-(5-fluoropyrimidin-2-yl)propyl)(methyl)amino)-4-oxo-1-(1-(6-(trifluoromethyl)pyridin-3-yl)ethyl)-4,5-dihydro-1H-pyrazolo[3,4-d]pyrimidine-3-carbonitrile] | 55.1 nM |
| CCC(c1ncc(F)cn1)N(C)c1nc2c(c(C#N)nn2C(C)c2ccc(C(F)(F)F)nc2)c(=O)[nH]1 (single isomer, unassigned) [Example 77, 6-((1-(5-fluoropyrimidin-2-yl)propyl)(methyl)amino)-4-oxo-1-(1-(6-(trifluoromethyl)pyridin-3-yl)ethyl)-4,5-dihydro-1H-pyrazolo[3,4-d]pyrimidine-3-carbonitrile] | 0.27 nM |
| CCC(c1ncc(F)cn1)N(C)c1nc2c(c(C#N)nn2C(C)c2ccc(C(F)(F)F)nc2)c(=O)[nH]1 (single isomer, unassigned) [Example 78, 6-((1-(5-fluoropyrimidin-2-yl)propyl)(methyl)amino)-4-oxo-1-(1-(6-(trifluoromethyl)pyridin-3-yl)ethyl)-4,5-dihydro-1H-pyrazolo[3,4-d]pyrimidine-3-carbonitrile] | 34.2 nM |
| CC(c1ccc(C(F)(F)F)nc1)n1nc(C#N)c2c(=O)[nH]c(CCc3ncccn3)nc21 (single isomer, unassigned) [Example 79, 4-oxo-6-(2-(pyrimidin-2-yl)ethyl)-1-(1-(6-(trifluoromethyl)pyridin-3-yl)ethyl)-4,5-dihydro-1H-pyrazolo[3,4-d]pyrimidine-3-carbonitrile] | 3.96 nM |
| CC(c1ccc(C(F)(F)F)nc1)n1nc(C#N)c2c(=O)[nH]c(CCc3ncccn3)nc21 (single isomer, unassigned) [Example 80, 4-oxo-6-(2-(pyrimidin-2-yl)ethyl)-1-(1-(6-(trifluoromethyl)pyridin-3-yl)ethyl)-4,5-dihydro-1H-pyrazolo[3,4-d]pyrimidine-3-carbonitrile] | 120 nM |
| CC(c1ccc(C(F)(F)F)nc1)n1nc(C#N)c2c(=O)[nH]c(CCc3ncc(C4CC4)cn3)nc21 (single isomer, unassigned) [Example 81, 6-(2-(5-cyclopropylpyrimidin-2-yl)ethyl)-4-oxo-1-(1-(6-(trifluoromethyl)pyridin-3-yl)ethyl)-4,5-dihydro-1H-pyrazolo[3,4-d]pyrimidine-3-carbonitrile] | 0.5 nM |
| CC(c1ccc(C(F)(F)F)nc1)n1nc(C#N)c2c(=O)[nH]c(CCc3ncc(C4CC4)cn3)nc21 (single isomer, unassigned) [Example 82, 6-(2-(5-cyclopropylpyrimidin-2-yl)ethyl)-4-oxo-1-(1-(6-(trifluoromethyl)pyridin-3-yl)ethyl)-4,5-dihydro-1H-pyrazolo[3,4-d]pyrimidine-3-carbonitrile] | 16.2 nM |
| CC(Cc1nc2c(c(C#N)nn2C(C)c2ccc(C(F)(F)F)nc2)c(=O)[nH]1)c1ncccn1 (single isomer, unassigned) [Example 83, 4-oxo-6-(2-(pyrimidin-2-yl)propyl)-1-(1-(6-(trifluoromethyl)pyridin-3-yl)ethyl)-4,5-dihydro-1H-pyrazolo[3,4-d]pyrimidine-3-carbonitrile] | 60.7 nM |
| CC(Cc1nc2c(c(C#N)nn2C(C)c2ccc(C(F)(F)F)nc2)c(=O)[nH]1)c1ncccn1 (single isomer, unassigned) [Example 84, 4-oxo-6-(2-(pyrimidin-2-yl)propyl)-1-(1-(6-(trifluoromethyl)pyridin-3-yl)ethyl)-4,5-dihydro-1H-pyrazolo[3,4-d]pyrimidine-3-carbonitrile] | 111 nM |
| CC(Cc1nc2c(c(C#N)nn2C(C)c2ccc(C(F)(F)F)nc2)c(=O)[nH]1)c1ncccn1 (single isomer, unassigned) [Example 85, 4-oxo-6-(2-(pyrimidin-2-yl)propyl)-1-(1-(6-(trifluoromethyl)pyridin-3-yl)ethyl)-4,5-dihydro-1H-pyrazolo[3,4-d]pyrimidine-3-carbonitrile] | 1.17 nM |
| CC(Cc1nc2c(c(C#N)nn2C(C)c2ccc(C(F)(F)F)nc2)c(=O)[nH]1)c1ncccn1 (single isomer, unassigned) [Example 86, 4-oxo-6-(2-(pyrimidin-2-yl)propyl)-1-(1-(6-(trifluoromethyl)pyridin-3-yl)ethyl)-4,5-dihydro-1H-pyrazolo[3,4-d]pyrimidine-3-carbonitrile] | 33.4 nM |
| CCC(Cc1nc2c(c(C#N)nn2C(C)c2ccc(C(F)(F)F)nc2)c(=O)[nH]1)c1ncccn1 (single isomer, unassigned) [Example 87, 4-oxo-6-(2-(pyrimidin-2-yl)butyl)-1-(1-(6-(trifluoromethyl)pyridin-3-yl)ethyl)-4,5-dihydro-1H-pyrazolo[3,4-d]pyrimidine-3-carbonitrile] | 93.4 nM |
| CCC(Cc1nc2c(c(C#N)nn2C(C)c2ccc(C(F)(F)F)nc2)c(=O)[nH]1)c1ncccn1 (single isomer, unassigned) [Example 88, 4-oxo-6-(2-(pyrimidin-2-yl)butyl)-1-(1-(6-(trifluoromethyl)pyridin-3-yl)ethyl)-4,5-dihydro-1H-pyrazolo[3,4-d]pyrimidine-3-carbonitrile] | 108 nM |
| CCC(Cc1nc2c(c(C#N)nn2C(C)c2ccc(C(F)(F)F)nc2)c(=O)[nH]1)c1ncccn1 (single isomer, unassigned) [Example 89, 4-oxo-6-(2-(pyrimidin-2-yl)butyl)-1-(1-(6-(trifluoromethyl)pyridin-3-yl)ethyl)-4,5-dihydro-1H-pyrazolo[3,4-d]pyrimidine-3-carbonitrile] | 0.24 nM |
| CCC(Cc1nc2c(c(C#N)nn2C(C)c2ccc(C(F)(F)F)nc2)c(=O)[nH]1)c1ncccn1 (single isomer, unassigned) [Example 90, 4-oxo-6-(2-(pyrimidin-2-yl)butyl)-1-(1-(6-(trifluoromethyl)pyridin-3-yl)ethyl)-4,5-dihydro-1H-pyrazolo[3,4-d]pyrimidine-3-carbonitrile] | 28 nM |
